Assays:
[1] = test system: whole blood from healthy human donors; assay: Cytokine induction in vitro in whole blood from healthy human donors (Example 2.5); format: cell-based; conditions: blood diluted 1:1 in RPMI, 18 to 20 hours, averages for all 20 donors, FIG. 9; for Type I IFN induction in human whole blood (active concentration): HEK-Blue™ IFN-α/β-KO-STING reporter; for IL-1 induction in human whole blood (active concentration): HEK-Blue™ IL-1R reporter; for TNF-α induction in human whole blood (active concentration): HEK-Blue™ TNF-α reporter
Excerpt: HEK-Blue™ cell lines: The following three cell lines also were used for biological evaluation of the CDNs. • 1. HEK-Blue™ IFN-α/β-KO-STING: These cells are derived from HEK-Blue™ IFN-α/β cells (InvivoGen catalog code: hkb-ifnab), in which the STING gene has been inactivated. HEK-Blue™ IFN-α/β cells enable detection of bioactive human type I IFNs through monitoring of activation of the ISGF3 pathway. These cells were generated by stable transfection of HEK293 cells with the human STAT2 and IRF9 genes to obtain a fully active type I IFN signaling pathway. The other genes of the pathway (IFNAR1, IFNAR2, JAK1, TyK2 and STAT1) are naturally expressed in sufficient amounts. The cells were further transfected with a SEAP reporter gene under control of an IFN-α/β-inducible ISG54 promoter. Stimulation of HEK-Blue™ IFN-α/β cells with human IFN-α or IFN-β activates the JAK/STAT/ISGF3 pathway and subsequently induces production of SEAP. Production of Type I interferons in these cells is measured using QUANTI-Blue™. • 2. HEK-Blue™ IL-1R (InvivoGen catalog code: hkb-illr): HEK-Blue™ IL-1R cells were designed to detect bioactive human and murine IL-1β through monitoring of activation of the NF-κB and AP-1 pathways. Additionally, these cells detect bioactive IL-1β from cynomolgus monkeys, dogs and rats. In fact, HEK-Blue™ IL-1R cells can detect IL-la and IL-1(3, as these cytokines bind to the same receptor, IL-1R. These cells derive from HEK-Blue™ IL-1β cells (InvivoGen catalog code: hkb-illb), in which the TNF-α response is blocked. Therefore, HEK-Blue™ IL-1R cells respond specifically to IL-1. These cells endogenously express the human IL-1 receptor and were stably transfected with the murine IL-1 receptor, rendering them very sensitive to both human and murine IL-1(3. HEK-Blue™ IL-1R cells express a SEAP reporter gene under control of an IFN-(3 minimal promoter fused to five NF-κB and five AP-1 binding sites. Binding of IL-1β to IL-1R on the surface of HEK-Blue™ IL-1R cells triggers a signaling cascade that leads to the activation of NF-κB and subsequent production of SEAP. Production of IL-1β in these cells is measured using QUANTI-Blue™. • 3. HEK-Blue™ TNF-II-[…](InvivoGen catalog code: hkb-tnfdmyd): HEK-Blue™ TNF-α cells enable detection of bioactive human and murine TNF-α through monitoring of activation of the NF-κB pathway. These cells were generated by stable transfection of HEK293 cells with a SEAP reporter gene under control of an IFN-(3 minimal promoter fused to five NF-κB and five AP-1 binding sites. They were further rendered unresponsive to IL-1β by knocking out the MyD88 gene. Stimulation of HEK-Blue™ TNF-α cells with TNF-α triggers activation of the NF-κB-inducible promoter and production of SEAP. Production of TNF-α in these cells is measured using QUANTI-Blue™. Quantification of IL-6 in Experiments
Acquisition and Handling of Human Blood Samples
Twenty human blood samples were acquired from heathy donors at the San Diego Blood Bank (3636 Gateway Center Ave, Suite 100; San Diego, Calif. 92102; USA; www.sandiegobloodbank.org). Briefly, the samples were collected by venipuncture into sodium heparin (green-cap) tubes at the time of donation, and then stored at 4° C. until pick-up. The tubes were picked up on the day of collection, stored on ice during transport, and subsequently tested with the CDNs on the same day.
Each blood sample was diluted (1:1) in RPMI medium and aliquoted into 96-well plates (180-[…]L wells) containing each CDN at six different concentrations (30 µg/mL, 10 µg/mL, 3 µg/mL, 1 µg/mL, 0.3 µg/mL and 0.1 µg/mL). The plates were incubated at 37° C. in a CO2 incubator for 18 to 20 hours. The next day the supernatants were collected, transferred into the corresponding wells of round-bottom 96-well plates, and stored at −80° C. […]

[2] = test system: snake-venom phosphodiesterase (SVPD); assay: Resistance to enzymatic cleavage by SVPD, monitored by UHPLC-MS (Example 2.6); conditions: 37° C., FIGS. 10A, 10C; for Resistance to enzymatic degradation by SVPD, compared with corresponding non-fluorinated ribo-CDN analog: 7 μg CDN, 160 μg SVPD in PBS with 0.6 mM MgCl2, 0 to 120 hours; for Resistance to SVPD, compared with corresponding analog containing two phosphodiester linkages: phosphorothioate vs phosphodiester fluorinated deoxyribo-CDNs
Method: (§1) • Enzymes used: snake-venom phosphodiesterase (SVPD) and nuclease P1 (NP1) • Subject CDNs tested: CL603, CL632, CL614 and CL656 • Reference (non-fluorinated) CDNs tested: c-GAMP and c-AIMP • Property evaluated: resistance to enzymatic cleavage
(§2) We incubated each CDN with either of two enzymes known to cleave nucleic acids and CDNs, and then looked for signs of degradation by UHPLC over time, by measuring the decrease in the area of the peak corresponding to the CDN (identified according to MS). Specifically, we assessed the resistance of the CDNs to snake-venom phosphodiesterase (SVPD) and nuclease P1 (NP1), both of which can degrade CDNs by cleaving the phosphodiester nucleotide linkages. The experiment was performed as follows:
(§3) Each CDN (7 […]g) was separately incubated with a solution (21 µL) of either enzyme (either 160 µg SVPD in PBS buffer containing 0.6 mM MgCl2; or 2.5 mU NP1 in 30 mM acetate buffer containing 2 mM ZnCl2 [pH 5.3]), or with water (as control) in a water bath at 37° C. Aliquots of the reaction mixture were collected at various time points from 0 to 120 hours, heated at 100° C. for 2 min, and then frozen at […] Finally, 10 µL of each aliquot was injected directly into the HPLC (Agilent 1290 Infinity UHPLC equipped with a UV-detector; column: Waters Acquity UPLC CSH C18 1.7 µm [2.1 mm×50 mm; flow rate: 0.3 mL/min]; detection at 254 nm; autosampler temperature: 25° C.) for analysis. The following gradient was used: 100% A (10 mM aq. ammonium formate) for 1 minute; then 100% A to 100% B (acetonitrile) over 5 minutes.
(§4) The percentage of absorbance of CDNs at each time point was calculated by dividing the peak area corresponding to the parent CDN, by the sum of all the peak areas in the chromatogram, and then multiplying by 100.

[3] = literature example (Li, 2014); cited from earlier work
nuclease P1 (NP1) = molecular target: T1, nuclease P1 (NP1) (Penicillium citrinum, UniProt P24289); assay: Resistance to enzymatic cleavage by NP1, monitored by UHPLC-MS (Example 2.6); conditions: 7 μg CDN; 2.5 mU NP1 in 30 mM acetate buffer with 2 mM ZnCl2, pH 5.3; 37° C.; 0 to 120 hours; FIGS. 10B, 10D
T1 sequence (P24289 1-270): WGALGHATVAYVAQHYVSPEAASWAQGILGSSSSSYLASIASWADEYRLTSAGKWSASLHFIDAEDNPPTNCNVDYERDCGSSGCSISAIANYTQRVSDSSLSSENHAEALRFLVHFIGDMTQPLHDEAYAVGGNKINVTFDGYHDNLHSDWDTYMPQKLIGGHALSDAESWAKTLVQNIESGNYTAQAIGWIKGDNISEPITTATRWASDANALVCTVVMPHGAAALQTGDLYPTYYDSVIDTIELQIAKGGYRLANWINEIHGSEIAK
Method: as §1, §2, §3, §4

mice = assay: Cytokine induction in CDN-treated mice (Example 2.3); format: in vivo, mouse; conditions: Swiss mice; 10 mg/kg i.v.; 4 h post-injection; RAW ISG54 reporter cells; FIG. 6
Excerpt: Interleukin-6 was quantified using an enzyme-linked immunoassay (ELISA) according to the manufacturer's instructions (R&D Systems).
• Species evaluated: mouse • Cyclic dinucleotides tested: CL604, CL606, CL609, CL611 and CL614 • Reference compound: c-AIMP and saline • Cytokines evaluated: IFN-α/β (using RAW ISG54 reporter cells) and IL-6 (by ELISA).
Twenty-one mice (Swiss; female; mean age: 8 weeks) were divided into seven groups of three: one group served as control (saline) and the other six groups were each treated with a cyclic dinucleotide (either c-AIMP, CL604, CL606, CL609, CL611 or CL614). On Day −7, blood samples for basal cytokine levels were collected from all mice and stored at −20° C. until analysis. On Day 1, the mice were treated with either 200 μL of physiologic serum (containing 0.9% NaCl) or 200 μL of a solution of a cyclic dinucleotide (dose: 10 mg/kg) in physiologic serum (containing 0.9% NaCl), by intravenous (i.v.) injection. Blood samples were collected from the mice at 4 h post-injection, and then stored at −20° C. until analysis. Cytokine induction was measured in the sera from the blood samples.

SMILES	Type I IFN induction in human whole blood (active concentration) [1]	IL-1 induction in human whole blood (active concentration) [1]	TNF-α induction in human whole blood (active concentration) [1]	Resistance to enzymatic degradation by SVPD, compared with corresponding non-fluorinated ribo-CDN analog [2]	Resistance to SVPD, compared with corresponding analog containing two phosphodiester linkages [2]	Resistance to enzymatic hydrolysis compared with phosphodiester analog [3]	Resistance to enzymatic degradation by NP1, compared with corresponding non-fluorinated ribo-CDN analog (nuclease P1 (NP1))	Type I interferon (IFN-α/β) induction in sera from mice (mice)
Nc1ncnc2c1ncn2C1OC2COP(=O)(S)O[C@@H]3C(COP(=O)(S)O[C@H]2[C@H]1F)OC(n1cnc2c(=O)[nH]cnc21)[C@@H]3F (mixture of isomers) [CL656]	more active than is its corresponding non-fluorinated analog	more active than is its corresponding non-fluorinated analog	more active than is its corresponding non-fluorinated analog	more resistant to enzymatic degradation	more resistant to SVPD			
Nc1nc2c(ncn2[C@@H]2O[C@@H]3COP(O)(=S)O[C@H]4[C@@H](O)[C@H](n5cnc6c(N)ncnc65)O[C@@H]4COP(=O)(S)O[C@@H]2[C@@H]3O)c(=O)[nH]1 (stereo partly drawn) [(2′,3′) c-GAMP(S)]						more resistant to enzymatic hydrolysis		
Nc1nc2c(ncn2C2OC3COP(=O)(O)O[C@@H]4C(COP(=O)(O)O[C@H]3[C@H]2F)OC(n2cnc3c(N)ncnc32)[C@@H]4F)c(=O)[nH]1 (some centres unmarked) [CL603]	more active than is its corresponding non-fluorinated analog	more active than is its corresponding non-fluorinated analog	more active than is its corresponding non-fluorinated analog	more resistant to enzymatic degradation			more resistant to enzymatic degradation	
Nc1ncnc2c1ncn2C1OC2COP(=O)(O)O[C@H]3C(n4cnc5c(=O)[nH]cnc54)OC(COP(=O)(O)O[C@@H]1[C@@H]2O)[C@H]3O (some centres unmarked) [CL611]								except CL611 strongly induced Type I interferons
Nc1ncnc2c1ncn2C1OC2COP(=O)(O)O[C@@H]3C(COP(=O)(O)O[C@H]2[C@H]1F)OC(n1cnc2c(=O)[nH]cnc21)[C@@H]3F (some centres unmarked) [CL614]	more active than is its corresponding non-fluorinated analog	more active than is its corresponding non-fluorinated analog	more active than is its corresponding non-fluorinated analog	more resistant to enzymatic degradation			more resistant to enzymatic degradation	
Nc1nc2c(ncn2C2OC3COP(=O)(S)O[C@@H]4C(COP(=O)(S)O[C@H]3[C@H]2F)OC(n2cnc3c(N)ncnc32)[C@@H]4F)c(=O)[nH]1 (some centres unmarked) [CL632]				more resistant to enzymatic degradation	more resistant to SVPD		more resistant to enzymatic degradation	

From patent US11667664B2, “Cyclic dinucleotides for cytokine induction” (KAYLA THERAPEUTICS, priority 2014, dated 2023)
